# Laboratory results: article PMC4457528, “Identification of Novel Small Molecule Inhibitors of Oncogenic RET Kinase” (PLoS ONE, 2015)
# Read-outs that look alike come from different tables or passages of the source.
# How the values were obtained:
# Assay in all cases: KinomeScan kinase panel, single concentration 10 µM
# Format in all cases: binding
# KinomeScan kinase panel [1] = target: T1, KinomeScan kinase panel (Homo sapiens, UniProt Q8IWQ3); conditions: BRSK2, 10 µM; read-out: score (%)
# T1 construct: purchased DiscoveRx (KinomeScan)
# T1 sequence (Q8IWQ3 1-736): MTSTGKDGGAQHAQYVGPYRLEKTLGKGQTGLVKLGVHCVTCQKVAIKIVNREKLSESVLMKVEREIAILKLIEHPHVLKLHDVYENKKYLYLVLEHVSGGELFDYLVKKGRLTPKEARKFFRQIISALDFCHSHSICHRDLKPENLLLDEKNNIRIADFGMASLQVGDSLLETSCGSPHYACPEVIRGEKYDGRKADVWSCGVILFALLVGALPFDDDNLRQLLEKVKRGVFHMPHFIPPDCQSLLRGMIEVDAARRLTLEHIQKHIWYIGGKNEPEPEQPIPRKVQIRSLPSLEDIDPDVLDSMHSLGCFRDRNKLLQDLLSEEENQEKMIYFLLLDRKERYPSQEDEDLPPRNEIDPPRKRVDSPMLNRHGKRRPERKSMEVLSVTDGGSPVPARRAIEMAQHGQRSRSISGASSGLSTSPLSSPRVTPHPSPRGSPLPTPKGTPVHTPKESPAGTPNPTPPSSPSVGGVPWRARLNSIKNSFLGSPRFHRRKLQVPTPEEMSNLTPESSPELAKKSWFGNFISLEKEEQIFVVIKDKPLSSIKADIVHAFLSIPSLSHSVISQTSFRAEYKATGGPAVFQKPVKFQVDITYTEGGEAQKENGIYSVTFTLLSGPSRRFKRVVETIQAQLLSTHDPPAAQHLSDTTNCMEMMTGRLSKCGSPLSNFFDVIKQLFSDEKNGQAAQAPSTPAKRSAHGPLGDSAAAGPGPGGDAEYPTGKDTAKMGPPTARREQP
# KinomeScan kinase panel [2] = target: T2, KinomeScan kinase panel (Homo sapiens, UniProt Q9H2G2); conditions: 10 µM, read-out: score (%)
# T2 construct: purchased DiscoveRx (KinomeScan)
# T2 sequence (Q9H2G2 whole entry): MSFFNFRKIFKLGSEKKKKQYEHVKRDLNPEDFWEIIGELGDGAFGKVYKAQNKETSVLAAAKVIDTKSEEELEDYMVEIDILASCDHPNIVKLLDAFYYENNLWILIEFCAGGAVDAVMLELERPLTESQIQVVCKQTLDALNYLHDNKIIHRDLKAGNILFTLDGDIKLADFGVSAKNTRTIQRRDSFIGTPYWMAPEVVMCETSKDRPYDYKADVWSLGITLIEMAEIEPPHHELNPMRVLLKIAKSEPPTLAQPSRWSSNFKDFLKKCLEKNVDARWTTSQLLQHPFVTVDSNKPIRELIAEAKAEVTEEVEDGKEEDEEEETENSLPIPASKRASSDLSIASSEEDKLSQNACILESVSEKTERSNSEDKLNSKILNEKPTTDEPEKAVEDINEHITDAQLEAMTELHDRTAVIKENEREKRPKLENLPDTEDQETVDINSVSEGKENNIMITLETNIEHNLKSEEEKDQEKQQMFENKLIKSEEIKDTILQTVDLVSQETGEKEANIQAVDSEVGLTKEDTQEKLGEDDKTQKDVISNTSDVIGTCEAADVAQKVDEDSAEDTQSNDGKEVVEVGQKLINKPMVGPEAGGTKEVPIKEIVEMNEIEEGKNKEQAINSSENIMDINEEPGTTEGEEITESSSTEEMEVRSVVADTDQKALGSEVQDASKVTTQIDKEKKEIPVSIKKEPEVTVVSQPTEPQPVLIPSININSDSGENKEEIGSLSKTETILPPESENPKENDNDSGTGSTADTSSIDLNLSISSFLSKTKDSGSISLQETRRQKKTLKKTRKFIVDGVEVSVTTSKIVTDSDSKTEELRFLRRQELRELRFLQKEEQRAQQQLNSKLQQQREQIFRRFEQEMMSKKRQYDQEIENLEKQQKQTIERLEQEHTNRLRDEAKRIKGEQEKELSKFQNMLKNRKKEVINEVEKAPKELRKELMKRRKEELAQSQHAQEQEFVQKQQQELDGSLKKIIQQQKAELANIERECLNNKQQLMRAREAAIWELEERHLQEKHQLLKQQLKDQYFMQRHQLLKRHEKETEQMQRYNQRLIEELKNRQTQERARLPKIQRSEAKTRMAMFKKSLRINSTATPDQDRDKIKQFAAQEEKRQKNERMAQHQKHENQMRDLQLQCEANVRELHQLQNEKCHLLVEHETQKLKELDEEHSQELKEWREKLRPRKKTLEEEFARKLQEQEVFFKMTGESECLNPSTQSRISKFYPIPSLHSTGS
# KinomeScan kinase panel [3] = target: T3, KinomeScan kinase panel (Homo sapiens, UniProt Q96L34); conditions: MARK4, 10 µM
# T3 construct: purchased DiscoveRx (KinomeScan)
# T3 sequence (Q96L34 1-752): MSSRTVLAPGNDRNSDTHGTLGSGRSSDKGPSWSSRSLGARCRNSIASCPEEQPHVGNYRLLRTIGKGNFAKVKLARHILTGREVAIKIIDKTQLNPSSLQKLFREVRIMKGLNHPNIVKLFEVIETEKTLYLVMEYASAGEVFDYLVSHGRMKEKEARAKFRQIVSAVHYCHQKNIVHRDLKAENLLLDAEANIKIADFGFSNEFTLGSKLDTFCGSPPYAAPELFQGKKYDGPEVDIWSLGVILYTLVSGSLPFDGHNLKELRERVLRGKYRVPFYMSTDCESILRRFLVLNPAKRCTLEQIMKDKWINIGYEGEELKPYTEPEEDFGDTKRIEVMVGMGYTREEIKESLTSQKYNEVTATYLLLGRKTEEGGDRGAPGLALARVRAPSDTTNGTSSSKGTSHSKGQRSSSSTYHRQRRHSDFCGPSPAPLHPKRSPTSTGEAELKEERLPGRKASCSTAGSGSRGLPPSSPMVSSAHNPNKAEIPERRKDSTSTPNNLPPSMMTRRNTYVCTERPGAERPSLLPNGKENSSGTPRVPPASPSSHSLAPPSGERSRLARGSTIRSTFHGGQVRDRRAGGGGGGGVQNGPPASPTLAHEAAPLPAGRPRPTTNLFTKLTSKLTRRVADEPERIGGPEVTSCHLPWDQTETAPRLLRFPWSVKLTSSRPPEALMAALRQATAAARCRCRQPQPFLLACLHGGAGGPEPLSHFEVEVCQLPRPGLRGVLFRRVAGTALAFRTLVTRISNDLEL
# KinomeScan kinase panel [4] = target: T4, KinomeScan kinase panel (Homo sapiens, UniProt P17948); conditions: FLT1, 10 µM; read-out: score (%)
# T4 construct: purchased DiscoveRx (KinomeScan)
# T4 sequence (P17948 27-1338): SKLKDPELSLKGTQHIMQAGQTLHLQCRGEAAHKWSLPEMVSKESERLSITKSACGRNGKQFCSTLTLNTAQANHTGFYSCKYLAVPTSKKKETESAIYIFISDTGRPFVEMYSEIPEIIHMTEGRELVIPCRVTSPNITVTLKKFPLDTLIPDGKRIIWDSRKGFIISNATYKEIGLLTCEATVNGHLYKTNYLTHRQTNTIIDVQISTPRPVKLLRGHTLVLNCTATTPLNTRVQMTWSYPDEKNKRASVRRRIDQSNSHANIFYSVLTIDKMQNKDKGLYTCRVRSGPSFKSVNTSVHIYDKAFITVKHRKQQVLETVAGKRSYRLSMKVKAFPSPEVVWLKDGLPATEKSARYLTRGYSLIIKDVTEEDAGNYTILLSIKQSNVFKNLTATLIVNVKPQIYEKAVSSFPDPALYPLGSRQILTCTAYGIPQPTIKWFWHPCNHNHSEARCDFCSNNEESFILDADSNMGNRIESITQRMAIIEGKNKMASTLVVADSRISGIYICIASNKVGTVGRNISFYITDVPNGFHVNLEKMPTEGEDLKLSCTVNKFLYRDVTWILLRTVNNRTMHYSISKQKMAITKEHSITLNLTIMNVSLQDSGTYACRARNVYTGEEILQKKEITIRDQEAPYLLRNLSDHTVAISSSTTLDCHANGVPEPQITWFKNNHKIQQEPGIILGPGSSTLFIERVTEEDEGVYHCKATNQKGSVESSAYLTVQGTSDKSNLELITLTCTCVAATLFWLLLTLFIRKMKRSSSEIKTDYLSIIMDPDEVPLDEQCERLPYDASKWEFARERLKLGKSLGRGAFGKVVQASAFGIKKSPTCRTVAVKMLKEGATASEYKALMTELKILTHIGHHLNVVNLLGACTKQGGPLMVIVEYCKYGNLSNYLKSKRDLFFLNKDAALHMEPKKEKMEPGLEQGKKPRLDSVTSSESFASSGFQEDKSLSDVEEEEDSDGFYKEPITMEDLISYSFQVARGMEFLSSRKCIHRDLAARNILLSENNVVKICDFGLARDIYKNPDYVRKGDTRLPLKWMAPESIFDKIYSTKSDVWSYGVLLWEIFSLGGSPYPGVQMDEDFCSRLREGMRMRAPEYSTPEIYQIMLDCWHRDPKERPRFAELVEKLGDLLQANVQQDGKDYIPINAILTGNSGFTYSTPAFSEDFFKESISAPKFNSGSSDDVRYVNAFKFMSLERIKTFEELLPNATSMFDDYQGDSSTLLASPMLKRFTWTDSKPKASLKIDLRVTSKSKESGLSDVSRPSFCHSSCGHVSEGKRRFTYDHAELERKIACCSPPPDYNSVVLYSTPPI
# KinomeScan kinase panel [5] = target: T5, KinomeScan kinase panel (Homo sapiens, UniProt Q16288); conditions: 10 µM, read-out: score (%)
# T5 construct: purchased DiscoveRx (KinomeScan)
# T5 sequence (Q16288 32-839): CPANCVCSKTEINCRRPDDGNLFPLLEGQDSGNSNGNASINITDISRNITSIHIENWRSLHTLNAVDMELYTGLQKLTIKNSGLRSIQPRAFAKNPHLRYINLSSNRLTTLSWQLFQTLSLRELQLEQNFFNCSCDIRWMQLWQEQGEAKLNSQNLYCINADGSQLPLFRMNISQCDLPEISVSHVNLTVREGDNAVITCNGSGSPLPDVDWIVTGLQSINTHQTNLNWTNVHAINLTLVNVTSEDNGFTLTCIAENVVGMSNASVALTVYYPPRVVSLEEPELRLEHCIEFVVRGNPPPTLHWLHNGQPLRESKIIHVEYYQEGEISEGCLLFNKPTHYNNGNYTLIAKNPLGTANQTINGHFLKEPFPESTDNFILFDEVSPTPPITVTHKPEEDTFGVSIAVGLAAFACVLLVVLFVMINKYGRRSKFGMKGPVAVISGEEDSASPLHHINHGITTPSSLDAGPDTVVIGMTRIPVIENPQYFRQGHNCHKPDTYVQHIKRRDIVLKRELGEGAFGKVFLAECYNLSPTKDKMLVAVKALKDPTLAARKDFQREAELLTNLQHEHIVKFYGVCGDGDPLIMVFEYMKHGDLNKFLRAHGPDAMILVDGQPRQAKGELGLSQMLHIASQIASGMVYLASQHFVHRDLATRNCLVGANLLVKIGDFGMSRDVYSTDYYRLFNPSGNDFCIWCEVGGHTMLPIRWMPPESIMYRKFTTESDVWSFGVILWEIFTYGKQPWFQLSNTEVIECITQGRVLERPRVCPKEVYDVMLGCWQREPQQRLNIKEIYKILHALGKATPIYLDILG
# KinomeScan kinase panel [6] = target: T6, KinomeScan kinase panel (Homo sapiens, UniProt P50750); conditions: CDK9, 10 µM; read-out: score (%)
# T6 construct: purchased DiscoveRx (KinomeScan)
# T6 sequence (P50750 whole entry): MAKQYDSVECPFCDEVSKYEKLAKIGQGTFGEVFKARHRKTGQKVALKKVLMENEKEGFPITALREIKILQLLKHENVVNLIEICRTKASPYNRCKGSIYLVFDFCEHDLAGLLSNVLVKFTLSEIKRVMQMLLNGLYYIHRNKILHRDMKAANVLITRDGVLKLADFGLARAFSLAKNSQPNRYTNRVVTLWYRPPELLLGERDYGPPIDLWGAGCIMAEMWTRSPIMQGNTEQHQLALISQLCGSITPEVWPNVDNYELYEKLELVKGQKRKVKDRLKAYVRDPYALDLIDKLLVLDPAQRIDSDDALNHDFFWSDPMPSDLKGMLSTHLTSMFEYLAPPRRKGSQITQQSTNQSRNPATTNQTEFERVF
# KinomeScan kinase panel [7] = target: T7, KinomeScan kinase panel (Homo sapiens, UniProt O15075); conditions: DCAMKL1, 10 µM
# T7 construct: purchased DiscoveRx (KinomeScan)
# T7 sequence (O15075 whole entry): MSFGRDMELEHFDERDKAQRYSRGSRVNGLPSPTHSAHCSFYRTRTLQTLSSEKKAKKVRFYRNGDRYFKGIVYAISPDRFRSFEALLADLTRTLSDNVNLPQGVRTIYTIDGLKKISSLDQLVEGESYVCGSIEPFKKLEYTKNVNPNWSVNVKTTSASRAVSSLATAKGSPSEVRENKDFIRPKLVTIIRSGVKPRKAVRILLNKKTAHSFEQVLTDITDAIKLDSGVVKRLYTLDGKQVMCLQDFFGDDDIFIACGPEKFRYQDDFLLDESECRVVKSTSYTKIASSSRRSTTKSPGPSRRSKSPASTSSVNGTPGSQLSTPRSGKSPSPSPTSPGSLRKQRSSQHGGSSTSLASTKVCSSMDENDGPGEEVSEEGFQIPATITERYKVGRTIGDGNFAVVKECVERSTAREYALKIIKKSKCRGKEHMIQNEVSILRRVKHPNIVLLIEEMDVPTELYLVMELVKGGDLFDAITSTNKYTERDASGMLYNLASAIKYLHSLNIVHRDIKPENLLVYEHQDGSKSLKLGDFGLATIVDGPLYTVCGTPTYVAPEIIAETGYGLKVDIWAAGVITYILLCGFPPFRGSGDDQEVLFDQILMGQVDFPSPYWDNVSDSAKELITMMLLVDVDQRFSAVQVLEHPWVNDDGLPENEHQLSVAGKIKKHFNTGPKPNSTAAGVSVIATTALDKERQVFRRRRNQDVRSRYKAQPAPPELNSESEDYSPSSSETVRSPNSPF
# KinomeScan kinase panel [8] = target: T8, KinomeScan kinase panel (Homo sapiens, UniProt O60285); conditions: ARK5, 10 µM
# T8 construct: purchased DiscoveRx (KinomeScan)
# T8 sequence (O60285 1-661): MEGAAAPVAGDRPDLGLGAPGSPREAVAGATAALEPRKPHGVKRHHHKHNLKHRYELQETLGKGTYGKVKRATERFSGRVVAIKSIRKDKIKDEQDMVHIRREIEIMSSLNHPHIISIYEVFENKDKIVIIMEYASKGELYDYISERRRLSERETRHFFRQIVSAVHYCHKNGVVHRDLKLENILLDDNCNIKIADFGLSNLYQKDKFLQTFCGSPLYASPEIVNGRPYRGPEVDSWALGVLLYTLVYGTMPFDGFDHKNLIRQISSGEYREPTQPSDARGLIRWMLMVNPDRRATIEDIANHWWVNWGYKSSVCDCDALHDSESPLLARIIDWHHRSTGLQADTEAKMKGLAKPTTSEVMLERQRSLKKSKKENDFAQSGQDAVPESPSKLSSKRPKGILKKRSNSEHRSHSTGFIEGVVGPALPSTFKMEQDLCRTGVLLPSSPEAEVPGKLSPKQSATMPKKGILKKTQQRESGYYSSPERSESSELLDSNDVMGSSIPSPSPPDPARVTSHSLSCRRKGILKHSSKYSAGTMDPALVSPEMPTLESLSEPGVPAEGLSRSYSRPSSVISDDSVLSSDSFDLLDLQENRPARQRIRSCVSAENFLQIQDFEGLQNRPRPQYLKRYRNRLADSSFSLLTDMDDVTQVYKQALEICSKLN
# KinomeScan kinase panel [9] = target: T9, KinomeScan kinase panel (Homo sapiens, UniProt P49674); conditions: CSNK1E, 10 µM; read-out: score (%)
# T9 construct: purchased DiscoveRx (KinomeScan)
# T9 sequence (P49674 whole entry): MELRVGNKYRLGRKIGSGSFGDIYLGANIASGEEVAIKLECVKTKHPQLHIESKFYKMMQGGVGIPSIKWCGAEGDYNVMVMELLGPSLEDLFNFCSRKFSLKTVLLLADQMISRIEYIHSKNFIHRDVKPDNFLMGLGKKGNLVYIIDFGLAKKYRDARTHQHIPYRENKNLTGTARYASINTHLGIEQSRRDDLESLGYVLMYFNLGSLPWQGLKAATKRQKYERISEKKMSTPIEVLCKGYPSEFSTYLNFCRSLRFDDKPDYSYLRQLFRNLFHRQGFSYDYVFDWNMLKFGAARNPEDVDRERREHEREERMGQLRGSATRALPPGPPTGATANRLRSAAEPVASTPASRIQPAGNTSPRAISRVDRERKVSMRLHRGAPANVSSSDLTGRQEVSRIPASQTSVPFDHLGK
# KinomeScan kinase panel [10] = target: T10, KinomeScan kinase panel (Homo sapiens, UniProt Q15418); conditions: 10 µM, read-out: score (%)
# T10 construct: purchased DiscoveRx (KinomeScan)
remaining binding at 10 µM (KinomeScan kinase panel [2]; SLK) [%],remaining binding at 10 µM (KinomeScan kinase panel [5]; TRKC) [%],remaining binding at 10 µM (KinomeScan kinase panel [10]; RPS6KA1(Kin.Dom.1)) [%],remaining binding at 10 µM (KinomeScan kinase panel [10]; RPS6KA1(Kin.Dom.2)) [%],Structure (SMILES),remaining binding at 10 µM (KinomeScan kinase panel [1]) [%],remaining binding at 10 µM (KinomeScan kinase panel [2]; kinase SLK) [%],score (%) (KinomeScan kinase panel [3]),remaining binding at 10 µM (KinomeScan kinase panel [4]) [%],remaining binding at 10 µM (KinomeScan kinase panel [5]; kinase TRKC) [%],remaining binding at 10 µM (KinomeScan kinase panel [6]) [%],score (%) (KinomeScan kinase panel [7]),score (%) (KinomeScan kinase panel [8]),remaining binding at 10 µM (KinomeScan kinase panel [9]) [%],remaining binding at 10 µM (KinomeScan kinase panel [10]; kinase RSK1(Kin.Dom.1-N-terminal)) [%],remaining binding at 10 µM (KinomeScan kinase panel [10]; kinase RSK1(Kin.Dom.2-C-terminal)) [%],remaining binding at 10 µM (KinomeScan kinase panel [10]; RPS6KA1(Kin.Dom.1-N-terminal)) [%],remaining binding at 10 µM (KinomeScan kinase panel [10]; RPS6KA1(Kin.Dom.2-C-terminal)) [%]
–,–,–,–,CCN1CCN(Cc2ccc(NC(=O)c3ccc(C)c(C#Cc4cccnc4)c3)cc2C(F)(F)F)CC1 [XMD15-44],> 30,0.1,nb (Hits values higher than 30% were considered negative (no binding: nb)),0.5,0.35,> 30,nb (Hits values higher than 30% were considered negative (no binding: nb)),nb (Hits values higher than 30% were considered negative (no binding: nb)),> 30,53,7.2,–,–
0.85,5.3,> 30,> 30,"CCN1CCN(Cc2ccc(NC(=O)c3ccc(C)c(/C=C/c4cnc5[nH]ccc5c4Cl)c3)cc2C(F)(F)F)CC1 [HG-6-63-01, (E)-3-(2-(4-chloro-1H-pyrrolo[2,3-b]pyridin-5-yl)vinyl)-N-(4-((4-ethylpiperazin-1-yl)methyl)-3-(trifluoromethyl)phenyl)-4-methylbenzamide]",> 30,–,25%,0.2,–,> 30,nb (Hits values higher than 30% were considered negative (no binding: nb)),nb (Hits values higher than 30% were considered negative (no binding: nb)),15,–,–,–,–
–,–,–,–,CCN1CCN(Cc2ccc(NC(=O)c3ccc(C)c(NC(=O)c4cncc(-c5cccs5)c4)c3)cc2C(F)(F)F)CC1 [ALW-II-41-27],> 30,5,nb (Hits values higher than 30% were considered negative (no binding: nb)),1,0.85,> 30,nb (Hits values higher than 30% were considered negative (no binding: nb)),nb (Hits values higher than 30% were considered negative (no binding: nb)),0.8,–,–,> 30,> 30
